Consider one compound from US20080108548A1, “Food Composition For Rapidly Attenuating Inflammatory Responses” (priority 2004, published 2008).

The data set relates to rats subjected to hemorrhagic shock. As to the method:
Using the non-lethal hemorrhagic shock model as described earlier (Luyer et al., Ann. Surg. 239:257-264, 2004; Luyer et al. Shock 21:65-71, 2004) rats were anesthetised, the femoral artery was dissected and cannulated. Mean arterial pressure (MAP) and heart rate were continuously recorded for 50 min. At the time of shock (t=0), 2.1 ml blood per 100 g body weight was taken at a rate of 1 ml/min (34-40% of total blood volume). At 45 min before induction of hemorrhagic shock, rats were subjected to vagotomy or sham vagotomy. In vagotomised animals a ventral cervical incision was made and both vagal trunks exposed. The vagus nerve was ligated at both ends using 4-0 silk suture and divided. In sham-operated animals, both vagal trunks were exposed, but the vagus nerve was not ligated and divided.
Before the experiments, 18 rats were fasted, 18 were fed with low-fat feed (6.9 en % protein, 75.4 en % carbohydrate, 16.7 en % fat) and 18 were fat with a high-fat feed according to the invention (6.9 en % protein, 40.9 en % carbohydrate, 52.2 en % fat). The low-fat and high-fat feeds were isocaloric. 3 ml was given at 18 h before hemorrhagic shock, and 0.75 ml at 2 h and 45 min before hemorrhagic by oral gavage. Fasted and high-fat fed rats underwent vagotomy or sham vagotomy. To investigate the role of CCK, six high-fat fed animas were injected i.v. with CCK-A (500 μg/kg) and CCK-B (500 μg/kg) receptor antagonists and six with control vehicle 25 min before induction of shock. […] At 90 min after hemorrhagic shock, blood was taken and segments of small bowel were harvested for determination of gut permeability. Plasma was separated by centrifugation, frozen immediately and stored until analysis.

[1] abbreviates: high-fat fed rats given the blocker i.v. 25 min before shock, compared to high-fat controls.
Setting [2] is: high-fat rats treated with chlorisondamine versus chlorisondamine-treated fasted rats.

Consider `C[N+](C)(C)CC[N+]1(C)Cc2c(Cl)c(Cl)c(Cl)c(Cl)c2C1` [chlorisondamine], for which, under setting [1], the “bacterial translocation to distant organs” value was “increased” and the plasma endotoxin result is reported as “elevated”. For the same compound, where the note is “high-fat fed sham-vagotomised rats, i.v. 25 min before shock”, the “inhibitory effect of high-fat enteral nutrition on circulating TNF-α” value was “abrogated”. Under setting [2], the IL-6 levels result is reported as “comparable” and the TNF-α levels result is “comparable”. In addition, where the note is “rat, in vivo”, the MAP entry is “significantly lower” and the “additional hypotension or changes in heart rate” value is recorded as “did not cause”. For the same compound, where the note is “rat, in vivo, iv”, the “decrease in MAP associated with administration” value was in the range of 100 to 65 mm Hg.
